In US12458605B2, “Lipid nanoparticle” (National University Corporation Hokkaido University, priority 2020, dated 2025):

Experiments:
[1] = Average particle size (ζ-Average) and PDI by dynamic light scattering (Zetasizer Nano ZSP); assay type: physicochemical
Description: The average particle size (ζ-Average) and PDI in PBS(−) of lipid nanoparticles were measured using “Zetasizer Nano ZSP”, an analyzer utilizing dynamic light scattering (manufactured by Malvern).
Measurement of average particle size and PDI of the lipid nanoparticles were carried out with the same method as the measurement of average particle size of mRNA-LNP.
The average particle size (ζ-Average) and PDI in PBS (−) of lipid nanoparticles were measured using “Zetasizer Nano ZSP”, an analyzer utilizing dynamic light scattering (manufactured by Malvern).

[2] = siRNA/mRNA encapsulation rate by Ribogreen reagent (section IV); assay type: physicochemical; settings: for % siRNA encapsulation: F7siRNA-loaded LNP, 50:10:38.5:1.5, N/P ratio 6; for % mRNA encapsulation: FlucmRNA-loaded LNP, 50:10:38.5:1.5
Description: The encapsulation rates of siRNA and mRNA of lipid nanoparticles were measured with Ribogreen reagent. A solution diluted with TE buffer solution was arranged so that lipid nanoparticle concentration as nucleic acid concentration to be 8 μg/mL, as a solution for measuring nanoparticle surface nucleic acid concentration. In addition, a solution for measuring total nucleic acid concentration was arranged so that lipid nanoparticle concentration as nucleic acid concentration to be 1.2 μg/mL, which is 1% (w/w) concentration of X-triton100, by adding X-triton100. For 100 μL of each solution, 100 μL of Ribogreen (registered trademark) reagent (Quant-iT™ RiboGreen™ RNA Reagent, manufactured by Thermofisher Scientific) was mixed well in the wells of 96-well microplate (black, made of polystyrene, flat bottom, manufactured by Corning), and the fluorescence intensity at an excitation wavelength of 485 nm and a measurement wavelength of 528 nm was measured with a microplate reader. Nucleic acid concentration was calculated by calibration curve created by measuring the fluorescence intensity of nucleic acid solution containing 1% X-triton100 (nucleic acid concentration: 0-2.5 μg/mL) as same as aforementioned. Nucleic acid encapsulation rate of each lipid nanoparticle was calculated by the following formula: Encapsulation rate %=(nucleic acid concentration in solution for measuring total nucleic acid concentration (μg/mL)−nucleic acid concentration in solution for measuring nanoparticle surface nucleic acid concentration (μg/mL))/nucleic acid concentration in solution for measuring total nucleic acid concentration (μg/mL)×100. <Results>
The encapsulation rate of mRNA of lipid nanoparticles was measured using Ribogreen (manufactured by life technologies).

[3] = system: liver; experiment: In vivo Fluc activity of FlucmRNA-loaded LNP by in vivo imaging, liver; settings: Balb/c mice, 6 hours; for Fluc Activity in liver: FlucmRNA-loaded LNP i.v. 0.1 mg mRNA/kg
Description: (§1) Then, each prepared FlucmRNA-loaded lipid nanoparticles were administered to Balb/c mice (Charles River Laboratories Japan, Inc., 7 weeks old, female) and in vivo gene expression activity was examined. Specifically, each FlucmRNA-loaded lipid nanoparticles were intravenously administered to Balb/c mice at 0.1 mg mRNA/kg, and Fluc activities in the liver and spleen at 6 hours later were measured. Fluc activity was measured by in vivo imaging system (Perkin Elmer, IVIS200) after administration of VivoGlo Luciferin, In Vivo Grade (Promega, P1041) dissolved with PBS to 15 mg/mL, via tail vein at a dose of 1.5 mg per mouse. The unit of Fluc activity is the emission intensity per unit area (Avg Radiance [p/s/cm2/sr]) at the maximum emission wavelength of about 560 nm. The results of measurement of the Fluc activity (Avg Radiance [p/s/cm2/sr]) in the liver and spleen of mice administered each FlucmRNA-loaded lipid nanoparticles are shown in Tables 5-7.

[4] = system: spleen; experiment: In vivo Fluc activity of FlucmRNA-loaded LNP by in vivo imaging, spleen; settings: Balb/c mice, 6 hours; for Fluc Activity in spleen: FlucmRNA-loaded LNP i.v. 0.1 mg mRNA/kg
Description: as §1

[5] = system: F7; experiment: In vivo F7 knockdown, plasma F7 enzyme activity (BIOPHEN FVII), Balb/c mice; settings: for F7 enzyme activity (%): i.v. 0.025 mg siRNA/kg, plasma at 24 hours, untreated mice as 100%
Description: Then, each prepared F7siRNA-loaded lipid nanoparticles were administered to Balb/c mice (Charles River Laboratories Japan, Inc., 5 weeks old, female) and in vivo F7 knockdown activity was examined. Specifically, BALB/c mice were intravenously administered F7siRNA-loaded lipid nanoparticles comprising the lipids described in Table 9 at 0.025 mg siRNA/kg and F7siRNA-loaded lipid nanoparticles comprising the lipids described in Tables 10 and 11 at 0.025 mg siRNA/kg, and the plasma F7 enzyme activity at 24 hours later was measured using BIOPHEN FVII (Biophen, A221304). Relative plasma F7 enzyme activity (%) of mice administered each F7siRNA-loaded lipid nanoparticles was calculated using plasma F7 enzyme activity of untreated mice as 100%. Furthermore, the ratio was calculated using the relative plasma F7 enzyme activity (%) of mice administered MC3-comprising F7siRNA-loaded lipid nanoparticles as 1. The results of measurement of CL4F6 derivative nanoparticles are shown in Tables 9 and 10, and results of measurement of CL15F6 derivative nanoparticles in Table 11.

[6] = Storage stability of FlucmRNA-loaded LNP at −80, 5, 25 and 40° C.; assay type: physicochemical; settings: for period for which quality remained good, −80° C.: maximum storage period 1 week
Description: Lipid nanoparticles were allowed to stand at each temperature of −80° C., 5° C., 25° C., and 40° C., and after keeping for each period of time, average particle size, PDI, and nucleic acid encapsulation rate were measured. Lipid nanoparticles which satisfy following all three conditions were defined that the quality was remained well: the average particle size is maintained within +/−20 nm based on the date of LNP preparation; PDI remains high uniformity with a value of 0.2 or less; and the nucleic acid encapsulation rate is also maintained at 80% or more. As a result of measuring average particle size, PDI, and nucleic acid encapsulation rate after each FlucmRNA-loaded lipid nanoparticle was allowed to stand at −80° C., 5° C., 25° C., and 40° C. respectively and kept for each period of time, periods of time defined as the quality of the lipid nanoparticles was remained well are shown in Tables 13 and 14. The lipid nanoparticles which remain in good quality with standing at 5° C. for one week or more can be evaluated as having excellent stability.

[7] = F7siRNA-loaded LNP, 50:10:38.5:1.5, N/P ratio 6
[8] = FlucmRNA-loaded LNP, 50:10:38.5:1.5
[9] = FlucmRNA-loaded LNP, lipid:DSPC:cholesterol:DMG-PEG2K 50:10:38.5:1.5
[10] = 0.1 mg mRNA/kg, versus LNP comprising CL4F6 (Tables 5 and 6)

Compound | PDI [1, 7] | ζ-Average (nm) [1, 7] [nm] | PDI [1, 8] | ζ-Average (nm) [1, 9] [nm] | % siRNA encapsulation [2] [%] | % mRNA encapsulation [2] [%] | Fluc Activity in liver [3] | Fluc activity in the spleen, compared with CL4F6 [4, 10] | Fluc Activity in spleen [4] | knockdown activity, compared with MC3 ([5]; F7siRNA-loaded LNP, versus LNP comprising MC3) | F7 enzyme activity (%) [5] [%] | period for which quality remained good, −80° C. [6] [week] | period for which quality remained good, 5° C. ([6]; maximum storage period 5 weeks) [weeks] | period for which quality remained good, 25° C. ([6]; maximum storage period 5 weeks) [weeks] | period for which quality remained good, 40° C. (days) ([6]; maximum storage period 5 weeks) [day days] | period for which quality remained good, 40° C. (weeks) ([6]; maximum storage period 5 weeks) | Fluc activity in the liver, compared with CL4F6 [3, 10]
CCCCCCCCC(CCCC)C(=O)OCCCCCCC(O)(CCCCCCOC(=O)C(CCCC)CCCCCCCC)CCCCN(CCC)CCC (stereo not shown) [CL4F 10-4] | 0.021 | 95.37 | 0.041 | 84.92 | 100.1 | 99.8 | 1.20E+08 Avg Radiance [p/s/cm2/sr] | higher Fluc activity | 6.70E+06 Avg Radiance [p/s/cm2/sr] | higher knockdown activity | 1.7 | 1 | 5 | 5 | 0 |  | 
CCCCCCCCC(CCCCCCC)C(=O)OCCCCCCC(O)(CCCCCCOC(=O)C(CCCCCCC)CCCCCCCC)CCCCN(CCC)CCC (stereo not shown) [CL4F 10-7] | 0.013 | 89.34 | 0.039 | 79.68 | 100.1 | 99.8 | 1.19E+08 Avg Radiance [p/s/cm2/sr] |  | 2.03E+06 Avg Radiance [p/s/cm2/sr] |  | 4.1 | 1 | 5 | 5 |  | 5 weeks | 
CCCCCCCCC(CCCCCCCC)C(=O)OCCCCCCC(O)(CCCCCCOC(=O)C(CCCCCCCC)CCCCCCCC)CCCCN(CCC)CCC [CL4F 10-8] | 0.007 | 91.44 | 0.021 | 81.99 | 99.9 | 99.8 | 5.14E+07 Avg Radiance [p/s/cm2/sr] |  | 8.04E+05 Avg Radiance [p/s/cm2/sr] |  | 8.1 | 1 | 5 | 5 |  | 5 weeks | 
CCCCCCCCCC(CCCCC)C(=O)OCCCCCCC(O)(CCCCCCOC(=O)C(CCCCC)CCCCCCCCC)CCCCN(CCC)CCC (stereo not shown) [CL4F 11-5] | 0.012 | 89.72 | 0.019 | 81.81 | 100.1 | 99.6 | 4.50E+07 Avg Radiance [p/s/cm2/sr] |  | 1.03E+06 Avg Radiance [p/s/cm2/sr] |  | 4.3 | 1 | 5 | 5 |  | 1 week weeks | 
CCCCCCCCCC(CCCCCC)C(=O)OCCCCCCC(O)(CCCCCCOC(=O)C(CCCCCC)CCCCCCCCC)CCCCN(CCC)CCC (stereo not shown) [CL4F 11-6] | 0.034 | 92.98 | 0.020 | 84.50 | 99.9 | 99.8 | 1.38E+08 Avg Radiance [p/s/cm2/sr] |  | 2.54E+06 Avg Radiance [p/s/cm2/sr] |  | 6 | 1 | 5 | 5 |  | 5 weeks | higher Fluc activity
CCCCCCCCCC(CCCCCCC)C(=O)OCCCCCCC(O)(CCCCCCOC(=O)C(CCCCCCC)CCCCCCCCC)CCCCN(CCC)CCC (stereo not shown) [CL4F 11-7] | 0.019 | 94.76 | 0.021 | 79.45 | 99.8 | 99.7 | 1.23E+08 Avg Radiance [p/s/cm2/sr] |  | 2.03E+06 Avg Radiance [p/s/cm2/sr] |  | 14.1 | 1 | 5 | 5 |  | 5 weeks | 
CCCCCCCCCC(CCCCCCCCC)C(=O)OCCCCCCC(O)(CCCCCCOC(=O)C(CCCCCCCCC)CCCCCCCCC)CCCCN(CCC)CCC [CL4F 11-9] | 0.009 | 90.93 | 0.014 | 81.13 | 100.1 | 99.8 | 6.86E+07 Avg Radiance [p/s/cm2/sr] |  | 1.19E+06 Avg Radiance [p/s/cm2/sr] |  | 47.7 | 1 | 5 | 5 |  | 5 weeks | 
